{
  "source": "patent US20240025886A1",
  "about": "“INHIBITORS OF IGF2BP1-RNA BINDING” (YISSUM RESEARCH DEVELOPMENT COMPANY OF THE HEBREW …, priority 2020, published 2024)",
  "key": {"[1]": {"biological_target": "G9a (Homo sapiens, UniProt Q96KQ7)", "sequence (Q96KQ7 whole entry, species assumed)": "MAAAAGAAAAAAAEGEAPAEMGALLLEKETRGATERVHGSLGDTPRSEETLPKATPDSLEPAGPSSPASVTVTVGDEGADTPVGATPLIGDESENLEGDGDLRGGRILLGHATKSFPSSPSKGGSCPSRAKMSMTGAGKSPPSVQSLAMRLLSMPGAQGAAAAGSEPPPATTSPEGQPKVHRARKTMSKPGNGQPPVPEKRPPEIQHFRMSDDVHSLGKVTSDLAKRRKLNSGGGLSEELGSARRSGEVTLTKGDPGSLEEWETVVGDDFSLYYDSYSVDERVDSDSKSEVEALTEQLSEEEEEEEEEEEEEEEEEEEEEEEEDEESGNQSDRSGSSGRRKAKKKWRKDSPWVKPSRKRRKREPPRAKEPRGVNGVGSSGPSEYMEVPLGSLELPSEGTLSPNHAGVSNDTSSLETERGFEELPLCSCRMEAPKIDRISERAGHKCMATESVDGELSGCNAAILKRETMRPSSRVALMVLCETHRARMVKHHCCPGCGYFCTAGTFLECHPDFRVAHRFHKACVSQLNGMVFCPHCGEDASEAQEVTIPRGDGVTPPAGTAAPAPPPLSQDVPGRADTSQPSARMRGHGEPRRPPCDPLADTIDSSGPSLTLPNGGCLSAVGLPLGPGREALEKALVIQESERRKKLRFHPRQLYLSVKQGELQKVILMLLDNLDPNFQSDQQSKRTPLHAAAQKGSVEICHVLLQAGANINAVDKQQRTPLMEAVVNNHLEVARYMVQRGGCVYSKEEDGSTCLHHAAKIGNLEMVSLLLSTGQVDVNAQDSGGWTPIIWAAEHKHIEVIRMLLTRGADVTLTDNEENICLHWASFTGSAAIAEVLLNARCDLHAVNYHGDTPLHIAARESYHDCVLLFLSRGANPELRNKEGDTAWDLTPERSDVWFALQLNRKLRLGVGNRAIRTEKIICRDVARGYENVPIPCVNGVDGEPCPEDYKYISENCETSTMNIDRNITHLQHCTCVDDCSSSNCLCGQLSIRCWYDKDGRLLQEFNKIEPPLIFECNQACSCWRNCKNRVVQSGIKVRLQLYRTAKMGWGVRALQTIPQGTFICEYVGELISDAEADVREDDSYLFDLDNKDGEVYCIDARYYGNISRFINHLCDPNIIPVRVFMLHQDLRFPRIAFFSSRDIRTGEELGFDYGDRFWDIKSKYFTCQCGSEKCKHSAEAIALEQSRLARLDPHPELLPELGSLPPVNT", "experiment": "G9a fluorescence polarization enzymatic activity assay", "type": "biochemical", "conditions": "increasing concentrations", "protocol": "For the small molecule screen, compounds were obtained from the collection maintained at the Grand Israel National Center for Personalized Medicine, consisting of molecules purchased from commercial vendors. Labelled RNA (10 nM) was incubated with recombinant Igf2bp1 protein (400 nM) in FAM-RNA buffer (10 mM Tris pH 8.0, 75 mM KCl, 0.5 mM EDTA, 1 mM DTT, 0.0188 U/μL RNAsin, 0.0005 μg/mL heparin, 0.0001 μg/μL tRNA, 0.01% Triton X-100, 3 mM MgCl2, 0.05% IGEPAL) at room temperature for 15 min. […] of this reaction mix was aliquoted with GNF WDII (USA) into wells of 1536 well plates, with a final concentration of […] compound or DMSO. The plates were spun down and read in a BMG Pherastar FS (Germany) plate reader plate reader, in FP mode with a 485/520/520 polarization filter, calibrated to 35 mP for free fluorescein with similar total intensity as experimental samples. The G9a FP assay was based on using an S-adenosylhomocysteine (SAH)-FITC probe and antibody to SAH to produce a high FP signal when the antibody binds to SAH-FITC. Unlabeled SAH produced by incubation of G9a enzyme with S-adenosylmethionine (SAM) and peptide substrate competes for the antibody and results in a low FP signal. 100% activity means that G9a is fully active and therefore a low FP signal is observed (SAH is produced)."}, "[2]": {"biological_target": "La (Homo sapiens, UniProt P05455)", "sequence (P05455 whole entry)": "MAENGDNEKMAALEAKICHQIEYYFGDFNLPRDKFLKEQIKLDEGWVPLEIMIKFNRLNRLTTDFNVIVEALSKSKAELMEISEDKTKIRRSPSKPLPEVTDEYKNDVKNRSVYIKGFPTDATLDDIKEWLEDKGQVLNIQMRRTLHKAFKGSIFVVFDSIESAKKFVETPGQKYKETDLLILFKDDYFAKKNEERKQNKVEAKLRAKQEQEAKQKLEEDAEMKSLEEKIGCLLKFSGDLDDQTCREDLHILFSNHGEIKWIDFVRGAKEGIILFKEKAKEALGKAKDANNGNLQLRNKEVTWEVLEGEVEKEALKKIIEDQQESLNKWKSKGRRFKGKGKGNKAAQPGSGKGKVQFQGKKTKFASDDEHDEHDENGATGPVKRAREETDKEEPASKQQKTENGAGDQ", "experiment": "MST binding to control RNA binding protein La"}, "[3]": {"system": "control luciferase in RKO cells", "experiment": "Control (wild type) luciferase in RKO cells", "type": "cell-based", "conditions": "50 mM 7773", "protocol": "The RKO cells were seeded in DMEM with 10% calf serum 24 hrs prior to the transfection. Transfection was done using Lipofectamine 2000 with reporter plasmids and Renilla-luciferase expressing vector (as internal control). After 24 hrs, cells were lysed using passive lysis buffer (Promega catalog #E1941). The lysates were cleared by centrifugation and its […] volume was mixed with […] of luciferase substrate solution for luminescence recording which was followed by addition of […] of Stop-glo solution (Promega catalog #E1910) with an additional luminescence reading. Both readings were detected by using GloMax 20/20 Luminometer (Promega), and the final value for each sample was the ratio of their two respective readings. To test the effects of 7773, transfected cells with reporter plasmids were washed with PBS after 24 hrs of transfection and incubated with medium containing 7773."}, "[4]": {"system": "H1299 cells", "experiment": "Real-time PCR of steady state RNA levels in H1299 cells", "type": "cell-based, human", "protocol": "(§1) Primers were calibrated for several Igf2bp1 RNA targets (Table 3): […]\n(§2) Cells were grown for 12 hours in 12 well plates prior to incubation with the compound at different concentrations for an additional 12 or 24 hours. Total RNA was then extracted using EZ-RNA total RNA isolation kit (Biological Industries) and cDNA prepared from the RNA using the First Strand cDNA Synthesis kit (Quanta bio). Real time PCR was performed with Fast SYBR Green Master Mix (Thermo Fisher Scientific), and cDNA expression analyzed with the Bio-Rad CFX Manager 3.1."}, "[5]": {"system": "cMyc mRNA", "experiment": "cMyc mRNA levels in different cell lines", "type": "cell-based", "protocol": "as §1, §2"}, "[6]": {"system": "ES2 cells", "experiment": "Wound healing (cell migration) assay, ES2 cells", "type": "cell-based, human", "protocol": "Cells were seeded in 96 IncuCyte® ImageLock plates (20×10^3 cells per well) for 24 hours, to a near confluency of 95%, before the addition of increasing concentrations of compound. After a further 24 hours, wells were scratched using the IncuCyte® 96-well WoundMaker Tool, and the cells cultured for an additional 48 hours using the IncuCyte® S3 Live-Cell Analysis System (Essen BioScience). The plate was imaged at increments of 120 minutes for a period of 48 hours, and then analyzed for relative wound healing."}, "[7]": {"system": "ES2 cells", "experiment": "Cell proliferation assay (Incucyte), ES2 cells", "type": "cell-based, human", "set-up": "dose or concentration left out as unconfirmed", "conditions": "ES2, up", "protocol": "ES2, H1299 and HEK293 cells were seeded in a 96 well plate (5×10^3 cells per well) for 24 hours before adding the compound at increasing concentrations. After an additional 24 hours, the plate was incubated in an IncuCyte® S3 Live-Cell Analysis System (Essen BioScience). The wells were filmed for 72 hours, and then analyzed for proliferation rate Using IncuCyte® S3 Live-Cell Analysis System (Essen BioScience)"}, "[8]": {"system": "H1299 cells", "experiment": "Growth in soft agar, H1299 cells", "type": "cell-based, human", "set-up": "dose or concentration left out as unconfirmed", "conditions": "H1299, 7773", "protocol": "Cells were grown for 12 hours in 6 well plates prior to incubation with the compound or DMSO for an additional 48 hours, 2000 cells were suspended in 0.3% agar-complete medium and then seeded in triplicates onto a 0.6% agar-complete medium base in a 6 well plate. After one week, the colonies were fed with 0.3% agar-complete medium, and after 2 additional weeks, imaged and quantified."}},
  "note": "Entries after “also recorded” stand apart in the source; their conditions may differ.",
  "data": [
    {"smiles": "O=C(c1ccc(Cn2cnnn2)cc1)N1CCCC(Nc2ccc3c(c2)OCO3)C1", "note": "(centres unmarked) [Compound 7773]", "values": [
      {"measurement": "Inhibition of G9a enzymatic activity", "setting": "[1]", "result": "almost no effect; also recorded: does not inhibit"},
      {"measurement": "Binding to La (MST)", "setting": "[2]", "result": "no binding"},
      {"measurement": "Activity of wild type luciferase", "setting": "[3]", "result": "did not affect"},
      {"measurement": "Steady state level of Kras mRNA", "setting": "[4]; H1299, 20 mM 7773, 12 hours", "result": "already reduced"},
      {"measurement": "Steady state levels of CD44, Kras, cMyc and SRF RNA", "setting": "[4]; H1299, 20 mM 7773, 24 hours", "result": "significantly reduced"},
      {"measurement": "Steady state levels of control RNAs (not targets of Igf2bp1)", "setting": "[4]; H1299, 20 mM 7773, 24 hours", "result": "not significantly affected"},
      {"measurement": "Reduction of cMyc mRNA levels", "setting": "[5]", "result": "50-60%"},
      {"measurement": "Inhibition of wound healing", "setting": "[6]; ES2, 5 mM 7773", "result": "discernible inhibition"},
      {"measurement": "Inhibition of wound healing", "setting": "[6]; ES2, 20 mM 7773", "result": "strongly inhibited"},
      {"measurement": "Cell proliferation", "setting": "[7]", "result": "remarkably unaffected"},
      {"measurement": "Ability to form colonies in soft agar", "setting": "[8]", "result": "dramatically inhibited"}
    ]}
  ]
}
